From patent publication US9527827B2, “C-9 oxygen functionalized labdane derivates” (COUNCIL OF SCIENTIFIC & INDUSTRIAL RESEARCH, priority 2011, dated 2016)
In brackets after ≈: the same amount, converted by molar mass. Entries after “also recorded” stand apart in the source; their conditions may differ.

Experiments:
[1] = system: prostaglandin-induced contractions; details: cited from earlier work
[2] = system: Mycobacterium tuberculosis H37Ra; assay: In vitro anti-mycobacterial activity against M. tuberculosis; format: cell-based; details: for IC90 / IC50: Mycobacterium tuberculosis, M. tuberculosis H37Ra; for IC90 / IC50 / Inhibition of / anti-tubercular activity against Mycobacterium tuberculosis (in words): in vitro
Procedure: All the isolated compounds and whole acetone extract were tested for their in vitro effect against Mycobacterium tuberculosis H37Ra.

M. tuberculosis H37Rv = details: cited from earlier work
Mycobacterium smegmatis = assay: Specificity test against M. smegmatis (XTT reduction microplate assay); format: cell-based
Escherichia coli = assay: Specificity test against E. coli (growth, absorbance at 620 nm); format: cell-based

For `C=C[C@]1(C)C=C2C(=O)C[C@H]3C(C)(C)[C@@H](O[C@@H]4O[C@H](CO)[C@@H](O)[C@H](O)[C@H]4O[C@@H]4O[C@H](CO[C@@H]5O[C@H](CO)[C@@H](O)[C@H](O)[C@H]5O)[C@@H](O)[C@H](O)[C@H]4O)CC[C@]3(C)[C@H]2CC1` [leucasperosides A, leucasperoside A], the “Inhibition of prostaglandin-induced contractions (in words)” value [1] is listed as “showed inhibition”.
In the case of `NNC(=O)c1ccncc1` [Isoniazid, reference compound], the IC90 [2] is reported as 0.05 ± 0.003 mg/L (≈ 0.365 µM).
For `C=C[C@](C)(O)CC[C@@H]1[C@@]2(C)CCCC(C)(C)[C@H]2CC[C@@]1(C)O` [Compound 4], the IC50 [2] was 5.95 mg/L (≈ 19.3 µM), the IC90 [2] was 10.8 mg/L (≈ 35.2 µM) and the “Inhibition of / anti-tubercular activity against Mycobacterium tuberculosis (in words)” value [2] was “potent anti-tubercular activity; also recorded: significant inhibition; also recorded: effective”.
In the case of `C=C[C@]1(C)C=C2C(=O)C[C@H]3C(C)(C)[C@@H](O[C@@H]4O[C@H](CO)[C@@H](O)[C@H](O)[C@H]4O[C@@H]4O[C@H](CO)[C@@H](O)[C@H](O)[C@H]4O)CC[C@]3(C)[C@H]2CC1` [leucasperosides B, leucasperoside B], the “Inhibition of prostaglandin-induced contractions (in words)” value [1] is listed as “showed inhibition”.
For leucasperone A, the “Inhibition of prostaglandin-induced contractions (in words)” value [1] is given as “showed inhibition”.
In the case of linifolioside, the “Inhibition of prostaglandin-induced contractions (in words)” value [1] is listed as “showed inhibition”.
For `C=CC(=C)CCC1C(=C)CC[C@H]2[C@@](C)(C(=O)O)[C@H](OC(C)=O)CC[C@]12C` (some centres unmarked) [juniperexcelsic acid], the MIC (M. tuberculosis H37Rv) is listed as 14.4 mg/L (≈ 39.9 µM).
`CO[C@H]1/C=C/O[C@@]2(C)Oc3c(C)c(O)c4c(O)c(c(/C=N/N5CCN(C)CC5)c(O)c4c3C2=O)NC(=O)/C(C)=C\C=C\[C@H](C)[C@H](O)[C@@H](C)[C@@H](O)[C@@H](C)[C@H](OC(C)=O)[C@@H]1C` [Rifampicin, reference compound] showed an IC90 (Mycobacterium smegmatis; Mycolicibacterium smegmatis, reference drug, value is IC90, not percent inhibition) of 0.2 ± 0.03 mg/L (≈ 0.243 µM) and an IC90 (Escherichia coli; Escherichia coli, reference drug, value is IC90, not percent inhibition) of 0.5 ± 0.04 mg/L (≈ 0.608 µM).
For `C[C@@H]1CC[C@H]2C(C)(C)CCC[C@]2(C)[C@@]1(O)CC/C(=C/CO)CO` [Compound 3], the IC50 [2] was 9.8 mg/L (≈ 30.2 µM), the IC90 [2] was 46.5 mg/L (≈ 143 µM) and the “Inhibition of / anti-tubercular activity against Mycobacterium tuberculosis (in words)” value [2] was “significant inhibition; also recorded: effective”. The “Specificity / selectivity for M. tuberculosis (in words)” value ([2]; versus E. coli and M. smegmatis) was “specifically active; also recorded: selective inhibitors”, the “Percent inhibition, M. smegmatis” value (Mycobacterium smegmatis; tested at IC90 found against M. tuberculosis, mean ± S.D. of three experiments) was 30.57 ± 3.58% and the “Percent inhibition, E. coli” value (Escherichia coli; tested at IC90 found against M. tuberculosis, 6 h incubation, mean ± S.D. of three experiments) was 11.47 ± 1.65%.
